The record followed here is ChEMBL document CHEMBL1147897, “Synthesis of enantiomerically pure milnacipran analogs and inhibition of dopamine, serotonin, and norepinephrine transporters” (Bioorg Med Chem Lett, 2007).

The structures appear in SMILES notation. “And” between values parts separate entries of the source, which are not always exact repeats. Equal entries are not always repeated.

What all share (format): functional, subcellular, Brain
The target in assay [1] is Norepinephrine transporter (Rattus norvegicus, UniProt Q9WTR4). Briefly: Inhibition of [3H]5-HT uptake at NE transporter in Wistar rat synaptosomes.
In assay [2] the target is Sodium-dependent serotonin transporter (Rattus norvegicus, UniProt P31652). Briefly: Inhibition of [3H]5-HT uptake at 5HT transporter in Wistar rat synaptosomes.
Assay [3] has as its target Sodium-dependent dopamine transporter (Rattus norvegicus, UniProt P23977). Briefly: Inhibition of [3H]5-HT uptake at DA transporter in Wistar rat synaptosomes.

Chain of Norepinephrine transporter (Q9WTR4 whole entry): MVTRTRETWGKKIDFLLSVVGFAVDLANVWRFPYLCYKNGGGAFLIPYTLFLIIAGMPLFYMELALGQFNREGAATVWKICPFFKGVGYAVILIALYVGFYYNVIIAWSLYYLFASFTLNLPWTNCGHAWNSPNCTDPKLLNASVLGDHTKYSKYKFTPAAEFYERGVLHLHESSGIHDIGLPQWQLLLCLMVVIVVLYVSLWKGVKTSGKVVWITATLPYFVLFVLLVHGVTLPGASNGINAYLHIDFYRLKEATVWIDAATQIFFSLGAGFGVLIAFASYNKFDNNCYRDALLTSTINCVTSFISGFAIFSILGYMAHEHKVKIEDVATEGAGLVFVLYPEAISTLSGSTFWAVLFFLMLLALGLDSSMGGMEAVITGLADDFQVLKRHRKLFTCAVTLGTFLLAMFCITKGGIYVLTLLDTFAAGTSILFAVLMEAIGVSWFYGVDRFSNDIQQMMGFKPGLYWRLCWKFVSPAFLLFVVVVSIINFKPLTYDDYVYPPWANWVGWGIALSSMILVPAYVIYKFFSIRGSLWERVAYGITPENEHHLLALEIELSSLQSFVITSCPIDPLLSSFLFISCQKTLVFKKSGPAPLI
Chain of Sodium-dependent serotonin transporter (P31652 whole entry): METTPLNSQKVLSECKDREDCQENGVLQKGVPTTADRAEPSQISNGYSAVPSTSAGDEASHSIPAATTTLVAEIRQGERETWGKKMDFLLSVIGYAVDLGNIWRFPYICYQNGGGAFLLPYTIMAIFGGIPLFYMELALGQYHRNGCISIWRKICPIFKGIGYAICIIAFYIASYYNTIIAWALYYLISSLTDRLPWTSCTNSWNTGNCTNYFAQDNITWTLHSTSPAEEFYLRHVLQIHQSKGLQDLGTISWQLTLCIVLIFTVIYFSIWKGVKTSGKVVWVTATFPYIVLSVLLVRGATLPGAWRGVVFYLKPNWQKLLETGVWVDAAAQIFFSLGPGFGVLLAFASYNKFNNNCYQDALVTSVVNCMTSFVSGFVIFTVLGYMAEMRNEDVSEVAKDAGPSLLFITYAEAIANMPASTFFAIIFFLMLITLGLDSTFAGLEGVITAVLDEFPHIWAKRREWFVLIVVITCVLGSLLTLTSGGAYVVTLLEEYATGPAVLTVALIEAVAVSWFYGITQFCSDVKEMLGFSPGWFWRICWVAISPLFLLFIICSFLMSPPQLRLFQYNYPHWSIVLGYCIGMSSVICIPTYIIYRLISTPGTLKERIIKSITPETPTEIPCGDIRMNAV
Chain of Sodium-dependent dopamine transporter (P23977 whole entry): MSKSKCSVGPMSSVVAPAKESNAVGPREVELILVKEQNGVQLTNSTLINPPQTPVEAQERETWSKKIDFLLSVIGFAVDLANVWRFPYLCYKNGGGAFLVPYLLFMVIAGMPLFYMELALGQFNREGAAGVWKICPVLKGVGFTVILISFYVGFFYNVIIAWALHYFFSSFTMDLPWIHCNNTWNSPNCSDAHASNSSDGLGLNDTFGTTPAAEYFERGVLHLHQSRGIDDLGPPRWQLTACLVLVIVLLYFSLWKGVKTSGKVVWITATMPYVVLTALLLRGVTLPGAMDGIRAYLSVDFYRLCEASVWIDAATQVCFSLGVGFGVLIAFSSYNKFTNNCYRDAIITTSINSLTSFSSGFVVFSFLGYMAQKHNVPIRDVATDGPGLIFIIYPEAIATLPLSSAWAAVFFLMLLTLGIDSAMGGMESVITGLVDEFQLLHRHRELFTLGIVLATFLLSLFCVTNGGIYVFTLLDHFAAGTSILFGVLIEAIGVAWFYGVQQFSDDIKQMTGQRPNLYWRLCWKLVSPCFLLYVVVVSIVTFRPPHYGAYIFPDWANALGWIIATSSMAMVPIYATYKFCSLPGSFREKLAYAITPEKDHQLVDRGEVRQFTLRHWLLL

Take `CCN(CC)C(=O)[C@]1(c2cccc(Cl)c2)C[C@@H]1CN`: the IC50 – broadly, the concentration that inhibits the measured activity by half – in assay [1] came out at 38 nM; in assay [2] it was 170 nM.

For `CCN(CC)C(=O)[C@]1(c2ccc3ccccc3c2)C[C@@H]1CN`, the IC50 in assay [1] is 5 nM; in assay [3] it was 140 nM; in assay [2] it was 18 nM.

`CCN(CC)C(=O)[C@@]1(c2ccc(OC)cc2)C[C@H]1CN`: the IC50 in assay [1] is 35 nM; in assay [2], 510 nM.

Take `CCN(CC)C(=O)[C@@]1(c2ccsc2)C[C@H]1CN`: the results for the 50% inhibitory concentration (IC50) in assay [1], in assay [3] and in assay [2] were 19 nM, 10000 nM and 190 nM, respectively.

In the case of `CCN(CC)C(=O)[C@@]1(c2cccc(Cl)c2)C[C@H]1CN`, the results for the half-inhibitory concentration (IC50) in assay [1], in assay [3] and in assay [2] were 33 nM, 9000 nM and 86 nM, respectively.

As to `CCN(CC)C(=O)[C@]1(c2cccc3ccccc23)C[C@@H]1CN`, the concentration for half-maximal inhibition (IC50) in assay [1] was found to be 200 nM; in assay [3] it was 5300 nM; in assay [2], 1200 nM.

For the molecule `CCN(CC)C(=O)[C@]1(c2ccc(Cl)cc2)C[C@@H]1CN`, the figures for the 50% inhibitory concentration (IC50) in assay [3] and in assay [2] were 3700 nM and 190 nM, respectively.

For `CCN(CC)C(=O)[C@]1(c2ccsc2)C[C@@H]1CN`, the IC50 is 410 nM in assay [1] and 250 nM in assay [2].

`CCN(CC)C(=O)[C@@]1(c2ccc(Cl)cc2)C[C@H]1CN`: in assay [2], the half-inhibitory concentration (IC50) came out at 790 nM.

Consider `CCN(CC)C(=O)[C@]1(c2ccc(OC)cc2)C[C@@H]1CN`, for which the half-maximal inhibitory concentration (IC50) in assay [1] was 140 nM; in assay [2], 230 nM.

On to `CCN(CC)C(=O)[C@]1(c2cccs2)C[C@@H]1CN`, for which, in assay [2], the IC50 is 250 nM and 520 nM.

`CCN(CC)C(=O)[C@@]1(c2ccc3ccccc3c2)C[C@H]1CN`: the IC50 in assay [1] was 29 nM; in assay [3], 1400 nM; in assay [2], 130 nM.

As for `CCN(CC)C(=O)[C@@]1(c2cccc3ccccc23)C[C@H]1CN`, the values for the half-maximal inhibitory concentration (IC50) in assay [1], in assay [3] and in assay [2] were 370 nM, 10000 nM and 7100 nM, respectively.

For the molecule `CCN(CC)C(=O)[C@]1(c2ccc(Cl)c(Cl)c2)C[C@@H]1CN`, the figures for the 50% inhibitory concentration (IC50) in assay [1], in assay [3] and in assay [2] were 10 nM, 540 nM and 84 nM, respectively.

For the molecule `CCN(CC)C(=O)[C@]1(c2ccc(F)cc2)C[C@@H]1CN`, the 50% inhibitory concentration (IC50) in assay [1] came to 500 nM; in assay [3], 10000 nM; in assay [2], 320 nM.

`CCN(CC)C(=O)[C@@]1(c2ccc(F)cc2)C[C@H]1CN`: the IC50 in assay [1] turned out to be 63 nM; in assay [2], 210 nM.

On to `CCN(CC)C(=O)[C@@]1(c2ccc(Cl)c(Cl)c2)C[C@H]1CN`, for which the IC50 came out at 26 nM in assay [1], 1700 nM in assay [3] and 440 nM in assay [2].
